Experimental data published in patent US12371426B2, “Pyridazine derivatives as SMARCA2/4 degraders” (Aurigene Discovery Technologies Limited, priority 2018, dated 2025).

What was measured:
Assay type in all cases: cell-based
[1] = target: T1, SMARCA2 (Homo sapiens, UniProt P51531); experiment: SMARCA2 degradation in H929 cells by Western blot; design: endogenous in cells; settings: 16 hours
Experimental: (§1) Determination of SMARCA2 and SMARCA4 Degradation in H929 Cells by Western Blot:
(§2) NCI-H929 (ATCC CRL-9068) was plated in 6 well plates using complete RPMI-1640 media. Next day, compounds of present invention were added to cells from 10 mM stocks made in DMSO (Sigma Cat no. D2650). Each concentration of compound was tested with DMSO not exceeding final percentage of 0.3 in the cells. Cells were incubated with the compound for 16 hours followed by harvesting with 1× RIPA lysis buffer (Thermo Fischer, catalogue number #89900) containing protease inhibitor cocktail (Sigma catalogue number #P-8340). Equal amount of protein was loaded on SDS PAGE gel for electrophoresis. Western blot was carried out for detection of either SMARCA2 (Cell signaling technologies, catalogue number #11966) or SMARCA4 antibody (Cell signaling technologies, catalogue number #49360). Beta Actin (Santa Cruz, catalogue number #69879) was used as loading control. Percentage of SMARCA2 or SMARCA4 degradation was calculated using formula % Degradation=100−(normalized band intensity in treated sample/normalized band intensity in DMSO sample)*100.
(§3) Selected compounds of the present invention were screened in the above mentioned assay procedures for determination of % SMARCA2 and SMARCA4 degradation 100 nM and the results are summarized in below table 30.

[2] = test system: NCI-H929 cells; experiment: Anti proliferative activity in NCI-H929 cell line by Cell Titer Glo assay; settings: Homo sapiens, 72 h, 3 days compound incubation, CellTiter Glo, read-out: Anti-proliferative activity IC50 group (NCI-H929 cells)
Experimental: Determination of Anti Proliferative Activity of Compounds in NCI-H929 and NCI-H838 Cell Lines by Cell Titer Glo® (promega) assay:
NCI-H929 (ATCC CRL-9068) or NCI-H838 (ATCC CRL-5844) cells were seeded in 96 well plate flat black clear bottom plates (Corning, Cat. No 3904) using complete RPMI-1640 media. Next day, compounds listed in the present invention were added to cells from 10 mM stocks made in DMSO (Sigma Cat no. D2650). Each concentration of compound was tested in triplicate with DMSO concentration at a final percentage not exceeding 0.3 in the cells. After the compound incubation (3 days for H929 and 8 days for H838) assay was terminated using 50 μl of CellTiter Glo® reagent (Promega, Cat. no G7572). CellTiter Glo® Luminescent reagent determines the number of viable cells based on quantitation of ATP present which is an indicator of cell number and metabolic activity. Luminescence readings were taken in Victor-3 instrument. Percent inhibition of proliferation was calculated using formula, % inhibition=100−(luminescence value of test/luminescence value of DMSO control)*100. DMSO control (0%)=Cells in complete media with DMSO; blank=Media alone containing DMSO. IC50 was calculated using graph pad prism software.
Herein group “A” refers to IC50 value lower than 1 μM, “B” refers to IC50 value between 1-10 μM (both inclusive) and “C” refers to IC50 value higher than 10 μM or less than 50% activity at 10 μM.

[3] = target: T2, SMARCA4 (Homo sapiens, UniProt P51532); experiment: SMARCA4 degradation in H929 cells by Western blot; settings: 16 hours; for SMARCA4 percent degradation at 0.1 µM: NCI-H929, 100 nM
T2 construct: endogenous in cells; host or cells: NCI-H929 (ATCC CRL-9068)
Experimental: as §1, §2, §3

[4] = target: T1, SMARCA2; experiment: SMARCA2 degradation in NCI-H838 cells by Western blot; design: endogenous in cells; host or cells: NCI-H838 (ATCC CRL-5844); settings: 16 hours
Experimental: Determination of SMARCA2 Degradation in NCI-1H838 Cells by Western Blot:
NCI-1H838 (ATCC CRL-5844) was plated in 6 well plates using complete RPMI-1640 media. Next day, compounds of present invention were added to cells from 10 mM stocks made in DMSO (Sigma Cat no. D2650). Each concentration of compound was tested with DMSO concentration not exceeding a final percentage of 0.3 in the cells. Cells were incubated with the compound for 16 hours followed by harvesting with 1× RIPA lysis buffer (Thermo Fischer, catalogue number #89900) containing protease inhibitor cocktail (Sigma catalogue number #P-8340). Equal amount of protein was loaded on SIDS PAGE gel for electrophoresis. Western blot was carried out for detection of SMARCA2 with antibody (Cell signaling technologies, catalogue number #11966). Beta Actin (Santa Cruz, catalogue number #69879) was used as loading control. Percentage of SMARCA2 degradation was calculated using formula % degradation=100−(normalized band intensity in treated sample/normalized band intensity in DMSO sample)*100”.
Selected compounds of the present invention were screened in the above mentioned assay procedures for determination of % SMARCA2 degradation at 100 nM and the results are summarized in below table 31.

T1 sequence (P51531 whole entry): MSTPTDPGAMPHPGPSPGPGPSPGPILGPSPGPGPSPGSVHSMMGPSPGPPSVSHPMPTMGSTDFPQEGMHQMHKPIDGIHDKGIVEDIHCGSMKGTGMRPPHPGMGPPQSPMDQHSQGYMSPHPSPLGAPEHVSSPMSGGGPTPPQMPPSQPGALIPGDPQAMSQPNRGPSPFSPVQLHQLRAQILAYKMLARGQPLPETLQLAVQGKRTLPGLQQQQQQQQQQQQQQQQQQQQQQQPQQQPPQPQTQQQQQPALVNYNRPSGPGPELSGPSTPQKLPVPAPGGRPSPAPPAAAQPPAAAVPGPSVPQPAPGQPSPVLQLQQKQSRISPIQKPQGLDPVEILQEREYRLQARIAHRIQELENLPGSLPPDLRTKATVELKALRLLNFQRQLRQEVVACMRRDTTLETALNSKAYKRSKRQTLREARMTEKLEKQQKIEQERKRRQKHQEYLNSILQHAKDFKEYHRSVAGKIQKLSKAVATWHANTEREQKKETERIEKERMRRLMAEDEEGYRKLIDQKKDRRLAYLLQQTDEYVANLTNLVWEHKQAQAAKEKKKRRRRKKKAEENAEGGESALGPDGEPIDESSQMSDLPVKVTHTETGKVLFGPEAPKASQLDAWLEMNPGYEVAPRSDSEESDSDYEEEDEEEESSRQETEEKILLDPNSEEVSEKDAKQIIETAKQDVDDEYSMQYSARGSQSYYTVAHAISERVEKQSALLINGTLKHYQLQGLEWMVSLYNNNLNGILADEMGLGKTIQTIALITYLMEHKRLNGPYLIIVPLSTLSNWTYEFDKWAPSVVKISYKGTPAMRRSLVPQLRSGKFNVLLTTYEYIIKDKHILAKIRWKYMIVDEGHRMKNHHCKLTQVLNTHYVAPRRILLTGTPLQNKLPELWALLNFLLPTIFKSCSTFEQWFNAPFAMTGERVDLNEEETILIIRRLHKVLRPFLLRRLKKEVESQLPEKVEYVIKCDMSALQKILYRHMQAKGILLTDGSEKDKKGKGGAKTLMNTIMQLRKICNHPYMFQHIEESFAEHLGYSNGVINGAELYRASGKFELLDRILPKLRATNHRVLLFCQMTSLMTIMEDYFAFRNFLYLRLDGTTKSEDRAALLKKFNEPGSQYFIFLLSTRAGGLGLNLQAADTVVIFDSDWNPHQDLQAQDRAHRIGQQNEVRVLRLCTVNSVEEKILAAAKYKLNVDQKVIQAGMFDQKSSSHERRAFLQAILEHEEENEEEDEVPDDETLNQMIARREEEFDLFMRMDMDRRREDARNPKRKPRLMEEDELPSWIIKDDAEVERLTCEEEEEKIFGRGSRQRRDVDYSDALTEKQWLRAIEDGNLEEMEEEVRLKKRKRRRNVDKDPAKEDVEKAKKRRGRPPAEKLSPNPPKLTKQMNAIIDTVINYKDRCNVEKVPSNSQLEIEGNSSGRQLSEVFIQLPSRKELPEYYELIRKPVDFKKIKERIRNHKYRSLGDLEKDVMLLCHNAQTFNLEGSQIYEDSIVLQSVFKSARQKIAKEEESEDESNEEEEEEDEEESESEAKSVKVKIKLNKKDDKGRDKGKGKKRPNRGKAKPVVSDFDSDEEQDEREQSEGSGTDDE
T2 sequence (P51532 whole entry): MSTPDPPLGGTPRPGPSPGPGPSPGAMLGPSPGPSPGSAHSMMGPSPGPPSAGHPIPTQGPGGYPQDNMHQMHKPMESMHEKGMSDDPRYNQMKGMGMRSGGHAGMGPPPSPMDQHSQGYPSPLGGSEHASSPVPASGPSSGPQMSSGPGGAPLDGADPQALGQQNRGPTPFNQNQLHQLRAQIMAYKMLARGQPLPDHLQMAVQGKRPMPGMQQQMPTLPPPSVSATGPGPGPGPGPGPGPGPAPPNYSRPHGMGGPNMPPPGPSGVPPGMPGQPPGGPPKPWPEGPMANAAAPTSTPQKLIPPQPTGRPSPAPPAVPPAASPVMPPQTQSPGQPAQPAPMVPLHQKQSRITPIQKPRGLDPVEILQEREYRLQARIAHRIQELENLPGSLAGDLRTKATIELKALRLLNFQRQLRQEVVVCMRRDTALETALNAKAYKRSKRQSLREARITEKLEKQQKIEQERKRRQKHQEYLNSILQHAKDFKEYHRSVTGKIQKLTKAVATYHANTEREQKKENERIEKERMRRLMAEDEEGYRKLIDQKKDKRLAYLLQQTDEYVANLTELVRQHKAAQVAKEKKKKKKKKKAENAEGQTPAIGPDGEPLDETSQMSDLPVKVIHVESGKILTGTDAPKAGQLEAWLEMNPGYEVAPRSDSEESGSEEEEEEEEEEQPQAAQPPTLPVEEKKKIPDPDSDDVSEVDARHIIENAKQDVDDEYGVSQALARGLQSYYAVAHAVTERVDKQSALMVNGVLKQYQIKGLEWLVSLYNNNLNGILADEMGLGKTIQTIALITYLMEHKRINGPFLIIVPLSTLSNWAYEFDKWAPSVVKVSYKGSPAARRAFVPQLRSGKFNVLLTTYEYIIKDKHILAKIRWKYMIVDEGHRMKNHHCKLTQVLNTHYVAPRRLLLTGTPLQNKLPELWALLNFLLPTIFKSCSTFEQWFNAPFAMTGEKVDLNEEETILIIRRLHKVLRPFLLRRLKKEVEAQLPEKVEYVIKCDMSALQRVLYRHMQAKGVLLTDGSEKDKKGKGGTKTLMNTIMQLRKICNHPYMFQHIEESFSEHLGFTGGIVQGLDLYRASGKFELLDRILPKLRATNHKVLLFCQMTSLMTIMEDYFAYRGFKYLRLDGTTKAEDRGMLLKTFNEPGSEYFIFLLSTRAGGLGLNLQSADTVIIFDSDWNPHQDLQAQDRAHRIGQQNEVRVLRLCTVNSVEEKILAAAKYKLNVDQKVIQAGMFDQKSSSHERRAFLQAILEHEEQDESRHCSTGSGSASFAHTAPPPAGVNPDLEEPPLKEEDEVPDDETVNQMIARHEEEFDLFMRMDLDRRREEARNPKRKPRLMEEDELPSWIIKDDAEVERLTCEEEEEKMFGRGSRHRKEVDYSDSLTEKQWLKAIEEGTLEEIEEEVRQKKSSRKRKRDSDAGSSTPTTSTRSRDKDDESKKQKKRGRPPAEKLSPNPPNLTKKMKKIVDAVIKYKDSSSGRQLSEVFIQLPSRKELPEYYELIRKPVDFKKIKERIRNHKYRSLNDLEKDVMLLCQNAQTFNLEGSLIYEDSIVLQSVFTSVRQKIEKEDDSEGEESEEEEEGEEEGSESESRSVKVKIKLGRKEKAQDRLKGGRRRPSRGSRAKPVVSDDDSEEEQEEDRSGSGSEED

| SMILES | SMARCA2 Percent degradation @ 100 nM [1] [%] | IC50 [2] [µM] | SMARCA2 @ 100 nM (% SMARCA2 degradation) [4] [%] | also measured |
| --- | --- | --- | --- | --- |
| Cc1ncsc1-c1ccc([C@H](C)NC(=O)[C@@H]2C[C@@H](O)CN2C(=O)[C@@H](NC(=O)C(C)N2CCN(c3cc(-c4ccccc4O)nnc3N)CC2)C(C)(C)C)cc1 (single isomer, unassigned) [Compound 57] | 79.6 | < 1 | – | – |
| Cc1ncsc1-c1ccc([C@H](C)NC(=O)[C@@H]2C[C@@H](O)CN2C(=O)[C@@H](NC(=O)CN2CCN(c3cc(-c4ccccc4F)nnc3N)CC2)C(C)(C)C)cc1 [Compound 44] | 93 | 1 to 10 | – | SMARCA4 percent degradation at 0.1 µM [3]: 82% |
| Cc1ncsc1-c1ccc(C(NC(=O)[C@@H]2C[C@@H](O)CN2C(=O)[C@@H](NC(=O)CC2CCN(c3cc(-c4cccc(F)c4O)nnc3N)CC2)C(C)(C)C)C(F)(F)F)cc1 (stereo partly drawn) [Compound 76, (2S,4R)-1-((S)-2-(2-(1-(3-amino-6-(3-fluoro-2-hydroxyphenyl)pyridazin-4-yl)piperidin-4-yl)acetamido)-3,3-dimethylbutanoyl)-4-hydroxy-N-(2,2,2-trifluoro-1-(4-(4-methylthiazol-5-yl)phenyl)ethyl)pyrrolidine-2-carboxamide] | 90 | – | – | SMARCA4 percent degradation at 0.1 µM [3]: 12% |
| Cc1ncsc1-c1ccc([C@H](C)NC(=O)[C@@H]2C[C@@H](O)CN2C(=O)[C@@H](NC(=O)CCCCCCC(=O)N2CCN(c3cc(-c4ccccc4O)nnc3N)CC2)C(C)(C)C)cc1 [Compound 37] | 96 | < 1 | – | – |
| Cc1ncsc1-c1ccc([C@H](C)NC(=O)[C@@H]2C[C@@H](O)CN2C(=O)[C@@H](NC(=O)C(C)N2CCN(c3cc(-c4ccccc4O)nnc3N)CC2)C(C)(C)C)cc1 (stereo partly drawn) [Compound 56, (2S,4R)-1-((2S)-2-(2-(4-(3-amino-6-(2-hydroxyphenyl)pyridazin-4-yl)piperazin-1-yl)propanamido)-3,3-dimethylbutanoyl)-4-hydroxy-N—((S)-1-(4-(4-methylthiazol-5-yl)phenyl)ethyl)pyrrolidine-2-carboxamide] | 99 | < 1 | – | SMARCA4 percent degradation at 0.1 µM [3]: 100% |
| Cc1ncsc1-c1ccc([C@H](C)NC(=O)[C@@H]2C[C@@H](O)CN2C(=O)[C@@H](NC(=O)CC2CCN(c3cc(-c4cccc(F)c4O)nnc3N)CC2)C(C)(C)C)cc1 [Compound 98] | 88 | < 1 | – | SMARCA4 percent degradation at 0.1 µM [3]: 99% |
| CC(=O)O[C@@H]1C[C@@H](C(=O)N[C@@H](C)c2ccc(-c3scnc3C)cc2)N(C(=O)[C@@H](NC(=O)CN2CCN(c3cc(-c4ccccc4O)nnc3N)CC2)C(C)(C)C)C1 [Compound 47, (3R,5S)-1-((S)-2-(2-(4-(3-amino-6-(2-hydroxyphenyl)pyridazin-4-yl)piperazin-1-yl)acetamido)-3,3-dimethylbutanoyl)-5-(((S)-1-(4-(4-methylthiazol-5-yl)phenyl)ethyl)carbamoyl)pyrrolidin-3-yl acetate] | 87 | – | – | SMARCA4 Percent degradation @ 100 nM [3]: 87% |
| Cc1ncsc1-c1ccc(CNC(=O)[C@@H]2C[C@@H](O)CN2C(=O)[C@@H](NC(=O)CN2CCN(c3cc(-c4ccccc4O)nnc3N)CC2)C(C)(C)C)cc1 [Compound 39] | 97 | < 1 | – | – |
| Cc1ncsc1-c1ccc([C@H](C)NC(=O)[C@@H]2C[C@@H](O)CN2C(=O)[C@H](C)NC(=O)CN2CCN(c3cc(-c4ccccc4O)nnc3N)CC2)cc1 [Compound 118] | 20.2 | > 10 | – | – |
| Nc1nnc(-c2ccccc2O)cc1N1CCN(CC(=O)Nc2cccc3c2C(=O)N(C2CCC(=O)NC2=O)C3=O)CC1 (stereo not drawn) [Compound 41] | 64 | – | – | SMARCA4 percent degradation at 0.1 µM [3]: 60% |
| CC(=O)O[C@@H]1C[C@@H](C(=O)NCc2ccc(-c3scnc3C)cc2)N(C(=O)[C@@H](NC(=O)CN2CCN(c3cc(-c4ccccc4O)nnc3N)CC2)C(C)(C)C)C1 [Compound 48, (3R,5S)-1-((S)-2-(2-(4-(3-amino-6-(2-hydroxyphenyl)pyridazin-4-yl)piperazin-1-yl)acetamido)-3,3-dimethylbutanoyl)-5-((4-(4-methylthiazol-5-yl)benzyl)carbamoyl)pyrrolidin-3-yl acetate] | 5.4 | – | – | SMARCA4 Percent degradation @ 100 nM [3]: 28% |
| Nc1nnc(-c2ccccc2O)cc1N1CCN(CCCC(=O)Nc2cccc3c2C(=O)N(C2CCC(=O)NC2=O)C3=O)CC1 (stereo not drawn) [Compound 70] | – | – | -11 | – |
| Cc1ncsc1-c1ccc([C@H](C)NC(=O)[C@@H]2C[C@@H](O)CN2C(=O)[C@@H](NC(=O)Cn2cc(-c3cc(-c4cccc(F)c4O)nnc3N)cn2)C(C)(C)C)cc1 [Compound 62, (2S,4R)-1-((S)-2-(2-(4-(3-amino-6-(3-fluoro-2-hydroxyphenyl)pyridazin-4-yl)-1H-pyrazol-1-yl)acetamido)-3,3-dimethylbutanoyl)-4-hydroxy-N—((S)-1-(4-(4-methylthiazol-5-yl)phenyl)ethyl)pyrrolidine-2-carboxamide] | – | – | 27 | – |
| Cc1ncsc1-c1ccc([C@H](C)NC(=O)[C@@H]2C[C@@H](O)CN2C(=O)[C@@H](NC(=O)CC2CCN(c3cc(-c4cc(F)ccc4F)nnc3N)CC2)C(C)(C)C)cc1 [Compound 100] | – | – | 9 | – |
| Cc1ncsc1-c1ccc([C@H](C)NC(=O)[C@@H]2C[C@@H](O)CN2C(=O)[C@@H](NC(=O)C(C)C2CCN(c3cc(-c4cccc(F)c4O)nnc3N)CC2)C(C)(C)C)cc1 (single isomer, unassigned) [Compound 84] | 58 | – | – | – |
| Cc1ncsc1-c1ccc(C(NC(=O)[C@@H]2C[C@@H](O)CN2C(=O)[C@@H](NC(=O)CC2CCN(c3cc(-c4cccc(F)c4O)nnc3N)CC2)C(C)(C)C)C(F)(F)F)cc1 (single isomer, unassigned) [Compound 78] | – | – | 26 | – |
| Cc1ncsc1-c1ccc([C@H](C)NC(=O)[C@@H]2C[C@@H](O)CN2C(=O)[C@@H](NC(=O)CN2CCN(c3cc(-c4ccccc4N)nnc3N)CC2)C(C)(C)C)cc1 [Compound 93] | – | – | 74 | – |
| Cc1ncsc1-c1ccc([C@H](C)NC(=O)[C@@H]2C[C@@H](O)CN2C(=O)[C@@H](NC(=O)OC2CCN(c3cc(-c4ccccc4O)nnc3N)CC2)C(C)(C)C)cc1 [Compound 80] | – | – | 13 | – |
| Nc1nnc(-c2ccccc2O)cc1N1CCN(CCC(=O)Nc2cccc3c2C(=O)N(C2CCC(=O)NC2=O)C3=O)CC1 (stereo not drawn) [Compound 69] | – | – | 12 | – |
